Source: PMC8131325 (The Journal of Biological Chemistry, 2021)
Where two headings read alike, the source gives them in different places. Ends that are not written are not given here.

Legend:
[1] = molecular target: T1, FABP3 (Homo sapiens, UniProt P05413); test: Quartz crystal microbalance (QCM) binding assay to immobilized FABP3; details: for kon / koff: QCM, immobilized His6-FABP3, 50 mM Tris-HCl pH 7.4, room temperature, kobs = koff + kon[αSyn]
T1 construct: made in house; host or cells: E. coli BLR(DE3), pET28a-derived vector (NdeI/XhoI), synthetic gene (Invitrogen GeneArt)
T1 sequence (P05413 whole entry): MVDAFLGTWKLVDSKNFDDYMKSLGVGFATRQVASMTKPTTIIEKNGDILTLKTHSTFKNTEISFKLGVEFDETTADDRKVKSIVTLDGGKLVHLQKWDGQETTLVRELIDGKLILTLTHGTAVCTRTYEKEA
Protocol: The binding affinities between αSyn and FABP3 were estimated directly using an Affinix QNμ quartz crystal microbalance apparatus operating at room temperature. Samples of His6-FABP3 were affixed to the gold-plated quartz sensor by nickel chelating binding groups as follows. Before binding, the gold sensor was washed with 1% SDS and piranha solution (H2SO4:H2O2 = 3:1). Next, 100 μl of 0.5 mM 3, 3’-dithiobis[N-(5-amino-5-carboxypentyl)propionamide-N’,N’-diacetic acid]dihydrochloride (C₂-NTA, Dojindo) solution was applied and incubated for 10 min at room temperature. This solution was rinsed with Milli-Q water, and 500 μl of Ni+ solution (20 mM Hepes-NaOH buffer, pH 7.5, containing 150 mM NaCl,50 mM EDTA, and 10 mM NiSO4) was added. After a 10 min incubation, the sensor was washed again with Milli-Q, then a 0.1 μM sample of His6-FABP3 in 50 mM Tris-HCl buffer, pH 7.4 was applied. The signal from the quartz sensor was then monitored over a 1 s interval with gentle stirring. To initiate the data sampling run, samples of αSyn with varying concentrations were then applied to the sensor. After each experimental run, the bound His6-FABP3 was removed by the application of 500 μl imidazole solution (0.4 M imidazole/20 mM Hepes pH 7.5/150 mM NaCl) for 30 min, followed by a Milli-Q rinse, and reattachment of Ni-ion and fresh His6-FABP3 to reset the sensor to its original state. Analysis of the raw traces to obtain quantitative affinity values were performed using the software package (AQUA 2.0) provided by the manufacturer, according to the following linear relationship between the observed rate constant kobs and the concentration of αSyn; kobs = koff + kon[αSyn]. Estimated kon and koff values were then used to determine the Kd.

[2] = tested on: αSyn; test: Thio-T fluorescence assay of αSyn fibril formation with added protein; assay type: biochemical, Human; details: αSyn 69 μM, 50 mM Tris-HCl pH 7.4, 150 mM NaCl, 37 °C, agitation
Protocol: The formation of αSyn fibrils were detected in fluorescence assays using Thio-T. Samples (1 mg/ml; 69 μM) of either WT or mutant αSyn were incubated in Thio-T assay buffer (50 mM Tris-HCl, pH 7.4, containing 150 mM NaCl and 20 μM Thio-T) with or without additional FABP3 and/or αSyn-derived oligopeptides. One hundred 50 μl aliquots were incubated in 96-well plates (8 × 12-well plate; Greiner) at 37 °C using an ARVOX4 (PerkinElmer) fluorescent plate reader with continuous agitation. The fluorescence signal of the samples (Ex: 440 nm, Em: 486 nm) were measured at 15 min intervals. In experiments where the effects of delayed FABP3 addition were probed (Fig. 1C), an equimolar concentration of FABP3 was added to the respective wells after an initial agitation regimen of 3, 8, or 24 h. Data shown are the average of data from three 150 μl samples, and error bars indicate standard errors of the mean.

[3] = molecular target: T2, FABP3 F16S (Homo sapiens, UniProt P05413, F17S); test: QCM binding assay to immobilized FABP3 F16S mutant
T2 construct: made in house
T2 sequence (P05413 whole entry F17S): as the sequence (P05413 whole entry) above, with F17S counted along it
Protocol: The binding affinities between αSyn and FABP3 were estimated directly using an Affinix QNμ quartz crystal microbalance apparatus operating at room temperature. Samples of His6-FABP3 were affixed to the gold-plated quartz sensor by nickel chelating binding groups as follows. Before binding, the gold sensor was washed with 1% SDS and piranha solution (H2SO4:H2O2 = 3:1). Next, 100 μl of 0.5 mM 3, 3’-dithiobis[N-(5-amino-5-carboxypentyl)propionamide-N’,N’-diacetic acid]dihydrochloride (C₂-NTA, Dojindo) solution was applied and incubated for 10 min at room temperature. This solution was rinsed with Milli-Q water, and 500 μl of Ni+ solution (20 mM Hepes-NaOH buffer, pH 7.5, containing 150 mM NaCl,[…] 10 mM NiSO4) was added. After a 10 min incubation, the sensor was washed again with Milli-Q, then a 0.1 μM sample of His6-FABP3 in 50 mM Tris-HCl buffer, pH 7.4 was applied. The signal from the quartz sensor was then monitored over a 1 s interval with gentle stirring. To initiate the data sampling run, samples of αSyn with varying concentrations were then applied to the sensor. After each experimental run, the bound His6-FABP3 was removed by the application of 500 μl imidazole solution (0.4 M imidazole/20 mM Hepes pH 7.5/150 mM NaCl) for 30 min, followed by a Milli-Q rinse, and reattachment of Ni-ion and fresh His6-FABP3 to reset the sensor to its original state. Analysis of the raw traces to obtain quantitative affinity values were performed using the software package (AQUA 2.0) provided by the manufacturer, according to the following linear relationship between the observed rate constant kobs and the concentration of αSyn; kobs = koff + kon[αSyn]. Estimated kon and koff values were then used to determine the Kd.

[4] = tested on: N2a cells; test: Cell viability by Tali Image-Based Cytometer (Calcein-AM/ethidium homodimer); parameters: species or system Mouse; details: protein co-expressed with FABP3 in N2a cells, 30 μM 6-OHDA 24 h
Protocol: Cell viability measurements using a Tali Image-Based Cytometer (Thermo Fisher Scientific) were performed according to previous methods ([59]). After 24 h incubation, media was changed to 0% FBS+MEM containing 30 μM 6-hydroxydopamine and incubated for 24 h. Statistical comparisons were performed by Welch’s t test.

[5] = Dynamic light scattering of fibril-forming samples; assay type: physicochemical; details: DLS, 25 °C
Protocol: Dynamic light scattering measurements were performed on an Otsuka Electronics FDLS-3000 monitor with a laser wavelength of 532 nm at an observation angle of 90°. Sample protein concentrations were adjusted to 0.3 mg/ml, and a sample volume of 2 ml was used for measurements. Samples were filtered before measurement.

Molecule | kon [1] | koff ([1]; read-out: koff) | further results
EEGYQDWEPEA [αSynP130-140Y136W] | 3.8 × 10^5 M^−1・s^−1 | 0.0024 s⁻¹ | 
bovine serum albumin |  |  | effect of added protein on αSyn fibril formation [2]: no significant suppressive effects in fibrillation of αSyn
α-synuclein [αSyn] | 6.4 × 10^5 M^−1・s^−1 |  | Kd ([1]; QCM (Affinix QNμ), His6-FABP3 immobilized via Ni-NTA on gold sensor, 50 mM Tris-HCl pH 7.4, room temperature, Kd determined from estimated kon and koff): 7.2 nM; koff [1]: 0.0046 s⁻¹; binding to FABP3 F16S (in words) [3]: unable to bind; Alive cells [4]: 77%; Dead cells [4]: 0%; Dying cells (co-stained with Calcein-AM and EthD-1) ([4]; control 12%): 23%; average particle size ([5]; αSyn alone, absence of FABP3, after 1200 min incubation): 6 μm; average particle size ([5]; αSyn in the presence of FABP3, after 1200 min incubation): 0.63 μm
lysozyme |  |  | effect of added protein on αSyn fibril formation [2]: no significant suppressive effects in fibrillation of αSyn
CCCCC/C=C\C/C=C\C/C=C\C/C=C\CCCC(=O)O [arachidonic acid, reference compound] | 0.8 × 10^5 M^−1・s^−1 | 0.0006 s⁻¹ | Kd [1]: 6.8 nM; Kd [3]: 2090 nM; koff [3]: 0.0047 s⁻¹; kon [3]: 0.02 × 10^5 M^−1・s^−1
EEGFQDYEPEA [αSynP130-140Y133F] | 7.5 × 10^5 M^−1・s^−1 | 0.0015 s⁻¹ | 
EEGYQDYEPEA [αSynP130-140] | 2.0 × 10^5 M^−1・s^−1 | 0.0012 s⁻¹ | Kd [1]: 6.1 nM
EEGFQDFEPEA [αSynP130-140 Y133F/Y136F] | 5.4 × 10^5 M^−1・s^−1 | 0.0011 s⁻¹ | 
EEGYQDFEPEA [αSynP130-140Y136F] | 4.8 × 10^5 M^−1・s^−1 | 0.0037 s⁻¹ | 
EEGWQDWEPEA [αSynP130-140Y133W/Y136W] | 2.4 × 10^5 M^−1・s^−1 | 0.0015 s⁻¹ | 
EEGFQDWEPEA [αSynP130-140 Y133F/Y136W] | 3.2 × 10^5 M^−1・s^−1 | 0.0019 s⁻¹ | Kd [1]: 6.1 nM
